The results in this text go back to US11236055B2 (Venenum Biodesign, LLC, priority 2016, dated 2022).

Where only a bound is given, the exact number is not on record here.

Assay [1] addresses T1, human TGR5 receptor (Homo sapiens, UniProt Q8TDU6).
T1 construct: host or cells: CHO-K1 (hTGR5-CHO cells)
T1 sequence (Q8TDU6 1-330): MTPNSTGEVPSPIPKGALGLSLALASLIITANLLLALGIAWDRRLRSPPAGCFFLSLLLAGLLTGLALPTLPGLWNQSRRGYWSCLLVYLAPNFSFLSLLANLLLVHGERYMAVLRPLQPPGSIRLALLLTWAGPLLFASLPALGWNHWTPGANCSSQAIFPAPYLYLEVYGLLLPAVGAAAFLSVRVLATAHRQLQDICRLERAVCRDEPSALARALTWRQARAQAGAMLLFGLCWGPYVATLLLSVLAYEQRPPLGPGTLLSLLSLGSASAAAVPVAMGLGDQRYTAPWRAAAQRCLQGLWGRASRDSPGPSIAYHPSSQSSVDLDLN
In words: Human TGR5 cAMP production assay. The class given is cell-based. The note with it: human TGR5, luminescent cAMP assay; coded A-D; read-out: Human TGR5 Lum. cAMP Activity (EC50). Summed up: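 Intracellular cAMP read by luminescent enzyme-complementation (XS+) after overnight development, following 1 h room-temperature compound treatment of hTGR5-CHO-K1 cells in IBMX plus anti-cAMP antibody. Compounds tested as half-log dilution series; EC50 derived.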
A general note: Cyclic AMP is a second messenger, typically raised through Gs and lowered through Gi signalling.

Assay [2] addresses T2, mouse TGR5 receptor (Mus musculus, UniProt Q80SS6).
T2 construct: expressed in transfected cells; host or cells: HEK293-EBNA (293 c18, ATCC CRL10852), Hygromycin B selection
T2 sequence (Q80SS6 1-329): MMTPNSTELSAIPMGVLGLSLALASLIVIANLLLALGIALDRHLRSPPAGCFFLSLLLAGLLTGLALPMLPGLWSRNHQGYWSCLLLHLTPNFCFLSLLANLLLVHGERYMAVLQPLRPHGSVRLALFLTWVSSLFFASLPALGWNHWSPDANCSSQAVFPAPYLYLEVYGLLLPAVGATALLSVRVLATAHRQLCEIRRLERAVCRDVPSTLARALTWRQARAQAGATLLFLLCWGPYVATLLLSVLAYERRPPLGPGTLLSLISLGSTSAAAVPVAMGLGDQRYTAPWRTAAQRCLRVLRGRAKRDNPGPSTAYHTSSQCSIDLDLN
The assay can be described thus: Mouse TGR5 cAMP production assay (HTRF, Cisbio cAMP HiRange). The settings on record: HEK293-EBNA cells overexpressing mouse TGR5, HTRF cAMP HiRange; coded A-D. The class given is cell-based. Summed up:
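cAMP read by HTRF competition after 1 h room-temperature compound exposure of mouse TGR5-overexpressing HEK293-EBNA cells. Cells were suspended in serum-free DMEM containing 500 μM IBMX; compounds ran as 12-point half-log dilutions in duplicate; EC50 derived.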

With `CCc1cnccc1-c1cccc(C(C)(C)N(CCCC(=O)NCCS(=O)(=O)O)S(=O)(=O)c2cccc(Cl)c2C)c1` [Compound 20AC, 2-(4-(3-chloro-N-(2-(3-(3-ethylpyridin-4-yl)phenyl)propan-2-yl)-2-methylphenylsulfonamido)butanamido)ethanesulfonic acid], the EC50 in assay [1] and in assay [2] was less than 100 nM in each case. As for `CCc1cnccc1-c1cccc(C2CN(C(=O)CCC(=O)O)CCN2S(=O)(=O)c2cccc(Cl)c2C)c1` (racemic) [Compound 46, (+/−) 4-(4-((3-Chloro-2-methylphenyl)sulfonyl)-3-(3-(3-ethylpyridin-4-yl)phenyl)piperazin-1-yl)-4-oxobutanoic acid], the 50% effective concentration (EC50) in assay [1] and in assay [2] was less than 100 nM each time. Turning to `CCc1cnccc1-c1cccc([C@H](C)N(CCCC(=O)NC[C@@H](O)[C@H](O)[C@@H](O)[C@@H](O)CO)S(=O)(=O)c2cccc(Cl)c2C)c1` [Compound 20AN, 4-(3-chloro-N-((S)-1-(3-(3-ethylpyridin-4-yl)phenyl)ethyl)-2-methylphenylsulfonamido)-N-((2R,3S,4S,5S)-2,3,4,5,6-pentahydroxyhexyl)butanamide], the EC50 in assay [1] and in assay [2] was less than 100 nM throughout. For `Cc1cnccc1-c1cccc(C(C)(C)N(CCCNC(=O)NCCS(=O)(=O)O)S(=O)(=O)c2cccc(Cl)c2C)c1` [Compound 29AA, 2-(3-(3-((3-Chloro-2-methyl-N-(2-(3-(3-methylpyridin-4-yl)phenyl)propan-2-yl)phenyl)sulfonamide)propyl)ureido)ethane-1-sulfonic acid], the EC50 in assay [1] and in assay [2] was less than 100 nM in each case. Regarding `CCc1cnccc1-c1cccc([C@H](C)N(CCCC(=O)NCCS(=O)(=O)NCC(=O)O)S(=O)(=O)c2ccccc2C(F)(F)F)c1` [Compound 20BG], the EC50 in assay [1] and in assay [2] was less than 100 nM throughout. As for `Cc1cnccc1-c1cccc([C@H](C)N(CCCCC(=O)NCCS(=O)(=O)NCCC(=O)O)S(=O)(=O)c2ccccc2C(F)(F)F)c1` [Compound 20BM], the EC50 in assay [1] and in assay [2] was less than 100 nM each time.

`CCc1cnccc1-c1cccc([C@H](C)N(CCCC(=O)NCCS(=O)(=O)O)S(=O)(=O)c2ccccc2C(F)(F)F)c1` [Compound 20BF, (S)-2-(4-(N-(1-(3-(3-ethylpyridin-4-yl)phenyl)ethyl)-2-(trifluoromethyl)phenylsulfonamido)butanamido)ethanesulfonic acid]: the concentration for a half-maximal effect (EC50) in assay [1] and in assay [2] was less than 100 nM each time. On to `CCc1cnccc1-c1cccc([C@H](C)N(CCCCNC(=O)NCS(=O)(=O)O)S(=O)(=O)c2ccccc2C(F)(F)F)c1` [Compound 28AH, (S)-(3-(4-(N-(1-(3-(3-ethylpyridin-4-yl)phenyl)ethyl)-2-(trifluoromethyl)phenylsulfonamido)butyl)ureido)methanesulfonic acid], for which the EC50 in assay [1] and in assay [2] was less than 100 nM in each case. Regarding `CCc1cnccc1-c1cccc([C@H](C)N(CCCC(=O)NCCS(=O)(=O)NCC(=O)O)S(=O)(=O)c2cccc(Cl)c2C)c1` [Compound 21AT, (S) 2-(3-(4-(3-chloro-2-methyl-N-(1-(3-(3-ethylpyridin-4-yl)phenyl)ethyl)phenylsulfonamido)butanamido)ethylsulfonamido)acetic acid], the EC50 in assay [1] and in assay [2] was less than 100 nM throughout. For `Cc1cnccc1-c1cccc([C@H](C)N(CCCCNC(=O)[C@@H](N)CS(=O)(=O)O)S(=O)(=O)c2ccccc2C(F)(F)F)c1` [Compound 31AC, (R)-2-amino-3-((4-(N-((S)-1-(3-(3-methylpyridin-4-yl)phenyl)ethyl)-2-(trifluoromethyl)phenylsulfonamido)butyl)amino)-3-oxopropane-1-sulfonic acid], the half-maximal effective concentration (EC50) in assay [1] and in assay [2] was less than 100 nM each time.

As for `Cc1cnccc1-c1cccc(C(C)(C)N(CCCC(=O)NCS(=O)(=O)O)S(=O)(=O)c2ccccc2C(F)(F)F)c1` [Compound 20AB], the EC50 in assay [1] and in assay [2] was less than 100 nM throughout. `Cc1cnccc1-c1cccc([C@H](C)N(CCCC(=O)NCCS(=O)(=O)NCCC(=O)O)S(=O)(=O)c2cccc(Cl)c2C)c1` [Compound 21AL]: the EC50 in assay [1] and in assay [2] was less than 100 nM in each case. Regarding `Cc1cnccc1-c1cccc(C(C)(C)N(CCCC(=O)NCCCS(=O)(=O)O)S(=O)(=O)c2cccc(Cl)c2C)c1` [Compound 20AD, 3-(4-(3-chloro-2-methyl-N-(2-(3-(3-methylpyridin-4-yl)phenyl)propan-2-yl)phenylsulfonamido)butanamido)propane-1-sulfonic acid], the half-maximal effective concentration (EC50) in assay [1] and in assay [2] was less than 100 nM throughout. On to `CCc1cnccc1-c1cccc(C(C)(C)N(CCCC(=O)NCCS(=O)(=O)O)S(=O)(=O)c2ccccc2C(F)(F)F)c1` [Compound 20, 2-(4-(N-(2-(3-(3-ethylpyridin-4-yl)phenyl)propan-2-yl)-2-(trifluoromethyl)-phenylsulfonamido)butanamido)ethanesulfonic acid], for which the concentration giving a half-maximal response (EC50) in assay [1] and in assay [2] was less than 100 nM throughout.

In the case of `CCc1cnccc1-c1cccc(C(C)(C)NS(=O)(=O)c2ccccc2C(F)(F)F)c1` [Compound 5, N-(2-(3-(3-ethylpyridin-4-yl)phenyl)propan-2-yl)-2-(trifluoromethyl)benzenesulfonamide], the EC50 in assay [1] and in assay [2] was less than 100 nM in each case. `Cc1cnccc1-c1cccc([C@H](C)N(CCCC(=O)NCCNS(=O)(=O)CCC(=O)O)S(=O)(=O)c2cccc(Cl)c2C)c1` [Compound 26AB]: the half-maximal effective concentration (EC50) in assay [1] and in assay [2] was less than 100 nM in each case.

As for `Cc1cnccc1-c1cccc([C@H](C)N(CCCC(=O)NCCNS(=O)(=O)CC(=O)O)S(=O)(=O)c2cccc(Cl)c2C)c1` [Compound 26AA], the 50% effective concentration (EC50) in assay [1] and in assay [2] was less than 100 nM in each case. As for `Cc1cnccc1-c1cccc(C(C)(C)N(CCCNC(=O)NCS(=O)(=O)O)S(=O)(=O)c2cccc(Cl)c2C)c1` [Compound 29, (3-(3-((3-Chloro-2-methyl-N-(2-(3-(3-methylpyridin-4-yl)phenyl)propan-2-yl)phenyl)sulfonamide)propyl)ureido) methanesulfonic acid], the results for the half-maximal effective concentration (EC50) in assay [1] and in assay [2] were less than 100 nM and 100 to 999 nM, respectively. The matching figures for `Cc1cnccc1-c1cccc([C@H](C)N(CCCC(=O)NCCS(=O)(=O)NCCCC(=O)O)S(=O)(=O)c2ccccc2C(F)(F)F)c1` [Compound 20BK]: less than 100 nM and less than 100 nM.

As to `Cc1cnccc1-c1cccc(C(C)(C)N(CCCC(=O)O)S(=O)(=O)c2ccccc2C(F)(F)F)c1` [Compound 14, 4-(N-(2-(3-(3-methylpyridin-4-yl)phenyl)propan-2-yl)-2-(trifluoromethyl)phenylsulfonamido)butanoic acid], the EC50 in assay [1] and in assay [2] was less than 100 nM in each case. As to `CCc1cnccc1-c1cccc(C2CN(C(=O)CS(=O)(=O)O)CCN2S(=O)(=O)c2cccc(Cl)c2C)c1` (centres unmarked) [Compound 49, 2-(4-((3-Chloro-2-methylphenyl)sulfonyl)-3-(3-(3-ethylpyridin-4-yl)phenyl)piperazin-1-yl)-2-oxoethanesulfonic acid], the EC50 in assay [1] and in assay [2] was less than 100 nM throughout. Turning to `Cc1cnccc1-c1cccc(C(C)(C)NS(=O)(=O)c2cccc(C(F)(F)F)c2)c1` [Compound 5AA, N-(2-(3-(3-methylpyridin-4-yl)phenyl)propan-2-yl)-3-(trifluoromethyl)benzenesulfonamide], the half-maximal effective concentration (EC50) (commonly the concentration at which the effect is half-maximal) in assay [1] is less than 100 nM. Take `CCc1cnccc1-c1cccc([C@H](C)N(CCCC(=O)NCCS(=O)(=O)NCC(=O)O)S(=O)(=O)c2ccccc2C)c1` [Compound 20BU, (S)-2-(4-(2-methyl-N-(1-(3-(3-ethylpyridin-4-yl)phenyl)ethyl)phenylsulfonamido)butanamidoethylsulfonamido)acetate]: the EC50 in assay [1] and in assay [2] was less than 100 nM in each case. Regarding `Cc1cnccc1-c1cccc([C@H](C)N(CCCCC(=O)NCCS(=O)(=O)O)S(=O)(=O)c2cccc(Cl)c2C)c1` [Compound 20AH, (S)-2-(5-(3-chloro-2-methyl-N-(1-(3-(3-methylpyridin-4-yl)phenyl)ethyl)phenylsulfonamido)pentanamido)ethanesulfonic acid], the EC50 in assay [1] and in assay [2] was less than 100 nM throughout.
